Results: US8952042B2, “FXR (NR1H4) binding and activity modulating compounds” (Phenex Pharmaceuticals AG, priority 2009, dated 2015)

What was measured:
[1] = Pharmacokinetics in monkeys after oral administration 12 mg/kg; format: in vivo, Cynomolgus monkeys (Macacca mulatta); conditions: oral 12 mg/kg, Avg; for AUC(0-inf) / AUC(0-t) / Cmax / Tmax / half-life / MRT last / Vd/F: Cynomolgus, cynomolgus monkey, plasma; for MRT last: read-out: MRT0-t (converted); for Vd/F: read-out: Vz/F
Procedure: (§1) Compounds were applied perorally by gavage at 5 mg/kg each and by i.v. Injection at 1 mg/kg each to male 12 weeks old C57BI/6J or Sprague Dawley rats and plasma concentrations of the test items were determined by LC-MS/MS after time points as indicated. In the case of Cynomolgus monkeys ([…]), the dose was adjusted to 12 mg/kg p.o., no i.v. injection was given (FIG. 1a, 1b and Table 2).
(§2) A solution of 2.5 mg/mL of each test item was produced by diluting them in the vehicle, 0.5% Hydroxypropyl-Methylcellulose (w/v) in 20 mM phosphate buffered saline pH 7.4. The solutions were stirred overnight at room temperature and heated to 40° C. for 10 minutes, resulting in fully homogenous suspension. The application was performed by administrating the solution perorally to the mice, with an application volume of 5 mL/kg. For each time point three mice or rats were used. In case of the Cynomolgus monkeys blood samples were obtained by repeated vein puncture. Blood samples were treated with L1-heparin during collection procedure and stored on ice until centrifugation at 645 g (5 min, 4° C.). Plasma was harvested and kept at −20° C. until being assayed. To 50 μL of plasma sample 6 μL acetonitrile containing an internal standard was added. Samples were vigorously shaken and centrifuged for 10 minutes at 6000 g and 20° C. An aliquot of the particle-free supernatant was transferred to 200 μL sampler vials and subsequently subjected to LC MS/MS for quantification.

[2] = molecular target: T1, human FXR alpha ligand binding domain (Homo sapiens, UniProt Q96RI1); test: FRET activity assay (ligand mediated cofactor peptide interaction, LANCE); format: biochemical; conditions: potency range
T1 construct: made in house; host or cells: E. coli BL21(DE3), vector pDEST15
T1 sequence (Q96RI1 187-472 isoform Q96RI1-2): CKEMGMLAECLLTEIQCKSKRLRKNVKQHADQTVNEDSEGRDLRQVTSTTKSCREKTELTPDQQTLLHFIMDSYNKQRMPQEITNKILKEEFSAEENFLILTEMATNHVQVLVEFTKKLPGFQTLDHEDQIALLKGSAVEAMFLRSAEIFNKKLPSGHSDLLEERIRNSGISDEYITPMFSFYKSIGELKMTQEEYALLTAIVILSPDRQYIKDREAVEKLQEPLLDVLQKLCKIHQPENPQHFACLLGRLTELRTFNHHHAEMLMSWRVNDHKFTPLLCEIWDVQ
Procedure: Determination of a ligand mediated cofactor peptide interaction to quantify ligand binding to the nuclear receptor FXR was performed as follows: Preparation of human FXR alpha ligand binding domain: The human FXRalpha LBD was expressed in E. coli strain BL21(DE3) as an N-terminally GST tagged fusion protein. The DNA encoding the FXR ligand binding domain was cloned into vector pDEST15 (Invitrogen). Expression was under control of an IPTG inducible T7 promoter. The amino acid boundaries of the ligand binding domain were amino acids 187-472 of Database entry NM_005123 (RefSeq). Expression and purification of the FXR-LBD: An overnight preculture of a transformed E. coli strain was diluted 1:20 in LB-Ampicillin medium and grown at 30° C. to an optical density of OD600=0.4-0.6. Gene expression was then induced by addition of 0.5 mM IPTG. Cells were incubated an additional 6 h at 30° C., 180 rpm. Cells were collected by centrifugation (7000×g, 7 min, room temperature). Per liter of original cell culture, cells were resuspended in 10 mL lysis buffer (50 mM Glucose, 50 mM Tris pH 7.9, 1 mM EDTA and 4 mg/mL lysozyme) and left on ice for 30 min. Cells were then subjected to sonication and cell debris removed via centrifugation (22000×g, 30 min, 4° C.). Per 10 mL of supernatant 0.5 mL prewashed Glutathione 4B sepharose slurry (Qiagen) was added and the suspension kept slowly rotating for 1 h at 4° C. Glutathione 4B sepharose beads were pelleted by centrifugation (2000×g, 15 sec, 4° C.) and washed twice in wash buffer (25 mM Tris, 50 mM KCl, 4 mM MgCl2 and 1M NaCl). The pellet was resuspended in 3 mL elution buffer per liter of original culture (elution buffer: 20 mM Tris, 60 mM KCl, 5 mM MgCl2 and 80 mM glutathione added immediately prior to use as powder). The suspension was left rotating for 15 min at 4° C., the beads pelleted and eluted again with half the volume of elution buffer than the first time. The eluates were pooled and dialysed overnight in 20 mM Hepes buffer (pH 7.5) containing 60 mM KCl, 5 mM MgCl2 as well as 1 mM dithiothreitol and 10% (v/v) glycerol. The protein was analysed by SDS-Page.
The method measures the ability of putative ligands to modulate the interaction between the purified bacterial expressed FXR ligand binding domain (LBD) and a synthetic biotinylated peptide based on residues 676-700 of SRC-1 (LCD2, 676-700). […] The ligand binding domain (LBD) of FXR was expressed as fusion protein with GST in BL-21 cells using the vector pDEST15. Cells were lysed by sonication, and the fusion proteins purified over glutathione sepharose (Pharmacia) according to the manufacturers instructions. For screening of compounds for their influence on the FXR-peptide interaction, the Perkin Elmer LANCE technology was applied. This method relies on the binding dependent energy transfer from a donor to an acceptor fluorophor attached to the binding partner of interest. For ease of handling and reduction of background from compound fluorescence LANCE technology makes use of generic fluorophore labels and time resolved detection Assays were done in a final volume of 25 μL in a 384 well plate, in a Tris-based buffer (20 mM Tris-HCl pH 7.5; 60 mM KCl, 5 mM MgCl2; 35 ng/μL BSA), containing 20-60 ng/well recombinantly expressed FXR-LBD fused to GST, 200-600 nM N-terminally biotinylated peptide, representing SRC1 aminoacids 676-700, 200 ng/well Streptavidin-xIAPC conjugate (Prozyme) and 6-10 ng/well Eu W1024—antiGST (Perkin Elmer). DMSO content of the samples was kept at 1%. After generation of the assay mix and diluting the potentially FXR modulating ligands, the assay was equilibrated for one hour in the dark at room temperature in FIA-plates black 384 well (Greiner). The LANCE signal was detected by a Perkin Elmer VICTOR2V™ Multilabel Counter. The results were visualized by plotting the ratio between the emitted light at 665 and 615 nm.

[3] = Plasma levels in mice after single dose gavage 5 mg/kg; format: in vivo; conditions: C57/bl6 mice, FIG. 1c, 5 mg/kg gavage
Procedure: Data represent the mean of 3 individual mouse plasma measurements.
as §1
as §2, with “To 50 μL of plasma sample 6 μL acetonitrile containing an internal standard was added. Samples were vigorously shaken and centrifuged for 10 minutes at 6000 g and 20° C.” left out

In the case of `O=C(O)c1cccc(C2CC2c2ccc(OCc3c(-c4c(Cl)cccc4Cl)noc3C3CC3)cc2Cl)c1` (racemic) [Example 4, 3-(2-(2-chloro-4-((5-cyclopropyl-3-(2,6-dichlorophenyl)isoxazol-4-yl)methoxy)phenyl)-cyclopropyl)benzoic acid], the AUC(0-inf) [1] is reported as 30700 ng·h/mL, the AUC(0-t) [1] is reported as 30500 ng·h/mL and the Cmax [1] is reported as 7340 ng/mL. It also gave a Tmax [1] of 1.42 h, a half-life [1] of 2.92 h and an MRT last [1] of 4.31 h. It also gave a Vd/F [1] of 1.93 L/kg, a CLz/F [1] of 7 mL/min/kg and an EC50 [2] of 10 to 100 nM. The “plasma levels as compared to GW4064” value [3] was “substantially higher”.
Compound `O=C(O)c1ccc(C2CC2c2ccc(OCc3c(-c4c(Cl)cccc4Cl)noc3C3CC3)cc2Cl)cc1` (racemic) [Example 12, 4-(2-(2-chloro-4-((5-cyclopropyl-3-(2,6-dichlorophenyl)isoxazol-4-yl)methoxy)phenyl)cyclopropyl)benzoic acid] has an AUC(0-inf) [1] of 15100 ng·h/mL, an AUC(0-t) [1] of 14500 ng·h/mL and a Cmax [1] of 2220 ng/mL. The Tmax [1] was 2.92 h, the half-life [1] was 4.54 h and the MRT last [1] was 6.11 h. For the same compound, the Vd/F [1] was 5.19 L/kg, the CLz/F [1] was 13 mL/min/kg and the EC50 [2] was greater than 100 nM. For the same compound, the “plasma levels as compared to GW4064” value [3] was “substantially higher”.
